The text below walks through data of PMC3025922 (BMC Biology, 2010).

Type in all cases: cell-based, human
The test system of one assay is DU145 cells. In words: Cell cycle analysis by flow cytometry, DU145. The procedure:
(§1) Cells were exposed to SMIPs (40 μM) for 24 h and 48 h. Cells were trypsinized, washed with PBS and suspended in 600 μL PBS. Cells were fixed by adding 1.4 mL cold absolute ethanol and kept at -20°C for at least 12 h. After washing once with PBS, the cells were resuspended in 250 μL PBS containing 2.5 μg RNAse A and incubated for 45 min at room temperature. Staining was done by adding 40 μg/mL of propidium iodine followed by incubation for 15 min at room temperature. DNA-bound fluorescence was read at 564 to 606 nm using FACSort and FACSCanto flow cytometers (BD Biosciences) at the Flow Cytometry Facility of the Sanford-Burnham Medical Research Institute. Distribution of cells in the different cell cycle phase was determined with ModFit LT 3.2.1 or FlowJo 8.6 software. Aggregates were excluded from the analysis manually using pulse shape or identified by automated modelling in ModFit LT.

Assay [1] deals with p27 protein levels in LNCaP cells. In words: Immunoblot quantification of p27, LNCaP. As to the method: Total cell lysate from cells treated with vehicle (DMSO) or compounds were obtained by incubating cells in lysis buffer (25 mM Tris-HCl pH 7.4, 150 mM NaCl, 0.5% Triton X-100, protease inhibitors) for 15 min at 4°C. The supernatant was collected by centrifugation and the amount of protein was determined with a Bio-Rad protein assay (Bio-Rad) using BSA as standard. Equal amounts of protein were subjected to SDS-PAGE (4%-20% gels, Invitrogen) and transferred to PVDF membranes. The membranes were blocked with TBST (50 mM Tris-HCl pH 7.5, 150 mM NaCl, 0.05% Tween-20) containing 5% non-fat dry milk or bovine serum albumin (BSA) for 1 h at room temperature, followed by incubation in primary antibodies 4°C overnight. Membranes were washed and incubated with secondary antibodies conjugated to HRP (Jackson ImmunoResearch Laboratories) for 1 h at room temperature. Signals were visualized using the ECL Western Blotting Substrate (Pierce Biotechnology, IL, USA) according to the manufacturer's instructions. Membranes were stripped using Restore™ Western Blot Stripping Buffer (Pierce Biotechnology). Films were scanned and quantification of the bands was performed using Image J software http://rsbweb.nih.gov/ij/.

In another assay the test system is LNCaP-S14 cells. The assay can be described thus: Cell cycle distribution in LNCaP-S14 transfected with siRNAs for p27 and p21. The procedure: as §1
LNCaP-S14 cells were seeded in 6 cm dishes or six-well-plates coated with poly-lysine the day before transfection. 10-20 nM of siRNA was transfected using DharmaFECT 3 (Thermo Scientific) according to the manufacturer's instructions. Briefly, siRNAs were dissolved in siRNA suspension buffer (Quiagen) at 20 μM, heated to 90°C for 1 min and incubated at 37°C for 1 h. siRNAs were added to the DharmaFECT 3 reagent diluted in Optimem media (1:100) and incubated for 20 min at room temperature. The mix was added to the cells for 24 h. Treatment with SMIPs (40 μM) or vehicle was carried on for another 24 h. Cells were obtained for FACS or lysed for immunoblotting analysis as described above. Untransfected cells as well as cells transfected with non-specific siRNA were used as controls. Silencer® Negative Control siRNA No.1 from Ambion (Applied Biosciences, CA, USA) was used as non-specific control siRNA. siRNA target sequences for p27 and p21 synthesized by IDT (Integrated DNA Technologies Inc, Iowa, USA) were as follows; p27 siRNA: […], and p21 siRNA: […] [56].

Where “and” joins values, the source holds several entries; their conditions need not be identical. Equal values may be shown once.

Consider `CC(C)(C)c1cc2cc(NC(=O)c3cccs3)ccc2[nH]1` [SMIP001], for which, in the assay with DU145 cells, the “Cell cycle distribution G1” value is 65.6 and 71.1; the “Cell cycle distribution G2” value was 9.7 and 13.6; the “Cell cycle distribution S” value was 23.9 and 13.4. Also, in assay [1], the “p27 protein level (immunoblot, DMSO = 1.0)” value came out at 1.5 ± 0.7. For the same compound, in the assay on LNCaP-S14 cells, the “% G1” value is 71.86% and 75.76% and 75.13% and 72.22%; the “% G2” value was 21.07% and 14.54% and 18.37% and 16.74%; the “% S” value is 7.07% and 9.70% and 6.50% and 11.04%.
